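48-hour exposure; five concentrations; linearly interpolated endpoints. GI50: concentration for 50% inhibition of growth. TGI marks complete inhibition of growth.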
Legend:
Assay in all cases: NCI tumour cell line growth inhibition, 48 h
786-0 renal = system: 786-0 renal
A498 renal = system: A498 renal
A549 NSCLC = system: A549 NSCLC
ACHN renal = system: ACHN renal
BT-549 breast = system: BT-549 breast
CAKI-1 renal = system: CAKI-1 renal
CCRF-CEM leukemia = system: CCRF-CEM leukemia
COLO 205 colon = system: COLO 205 colon
DU-145 prostate = system: DU-145 prostate
EKVX NSCLC = system: EKVX NSCLC
HCC-2998 colon = system: HCC-2998 colon
HCT-116 colon = system: HCT-116 colon
HCT-15 colon = system: HCT-15 colon
HL-60(TB) leukemia = system: HL-60(TB) leukemia
HOP-62 NSCLC = system: HOP-62 NSCLC
HOP-92 NSCLC = system: HOP-92 NSCLC
HS 578T breast = system: HS 578T breast
HT29 colon = system: HT29 colon
IGROV1 ovarian = system: IGROV1 ovarian
K-562 leukemia = system: K-562 leukemia
KM12 colon = system: KM12 colon
LOX IMVI melanoma = system: LOX IMVI melanoma
M14 melanoma = system: M14 melanoma
MALME-3M melanoma = system: MALME-3M melanoma
MCF7 breast = system: MCF7 breast
MDA-MB-231 breast = system: MDA-MB-231 breast
MDA-MB-435 = system: MDA-MB-435
MOLT-4 leukemia = system: MOLT-4 leukemia
NCI-H23 lung = system: NCI-H23 lung
NCI-H460 lung = system: NCI-H460 lung
NCI-H522 lung = system: NCI-H522 lung
NCI/ADR-RES ovarian = system: NCI/ADR-RES ovarian
OVCAR-3 ovarian = system: OVCAR-3 ovarian
OVCAR-4 ovarian = system: OVCAR-4 ovarian
OVCAR-5 ovarian = system: OVCAR-5 ovarian
OVCAR-8 ovarian = system: OVCAR-8 ovarian
PC-3 prostate = system: PC-3 prostate
RPMI-8226 leukemia = system: RPMI-8226 leukemia
RXF 393 renal = system: RXF 393 renal
SF-268 CNS = system: SF-268 CNS
SF-295 CNS = system: SF-295 CNS
SF-539 CNS = system: SF-539 CNS
SK-MEL-2 melanoma = system: SK-MEL-2 melanoma
SK-MEL-28 melanoma = system: SK-MEL-28 melanoma
SK-MEL-5 melanoma = system: SK-MEL-5 melanoma
SK-OV-3 ovarian = system: SK-OV-3 ovarian
SN12C renal = system: SN12C renal
SNB-19 CNS = system: SNB-19 CNS
SNB-75 CNS = system: SNB-75 CNS
SR leukemia = system: SR leukemia
SW-620 colon = system: SW-620 colon
T-47D breast = system: T-47D breast
TK-10 renal = system: TK-10 renal
U251 CNS = system: U251 CNS
UACC-257 melanoma = system: UACC-257 melanoma
UACC-62 melanoma = system: UACC-62 melanoma
UO-31 renal = system: UO-31 renal

Which results are given for `CCCCC/C=C/C(=O)CCc1ccc(O)c(OC)c1`?
GI50 (786-0 renal): 10.6 µM; TGI (786-0 renal): 23.6 µM; GI50 (A498 renal): 13.1 µM; TGI (A498 renal): 26.8 µM; GI50 (A549 NSCLC): 6.25 µM; TGI (A549 NSCLC): 20.8 µM; GI50 (ACHN renal): 11.8 µM; TGI (ACHN renal): 24.1 µM; GI50 (BT-549 breast): 13.2 µM; TGI (BT-549 breast): 26.7 µM; GI50 (CAKI-1 renal): 9.38 µM; TGI (CAKI-1 renal): 27.5 µM; GI50 (CCRF-CEM leukemia): 0.198 µM; TGI (CCRF-CEM leukemia): 3.01 µM; GI50 (COLO 205 colon): 11.2 µM; TGI (COLO 205 colon): 24.1 µM; GI50 (DU-145 prostate): 4.03 µM; TGI (DU-145 prostate): 15.4 µM; GI50 (EKVX NSCLC): 15.1 µM; TGI (EKVX NSCLC): 31.9 µM; GI50 (HCC-2998 colon): 16.7 µM; TGI (HCC-2998 colon): 30.7 µM; GI50 (HCT-116 colon): 1.71 µM; TGI (HCT-116 colon): 3.26 µM; GI50 (HCT-15 colon): 10.8 µM; TGI (HCT-15 colon): 27.2 µM; GI50 (HL-60(TB) leukemia): 0.784 µM; TGI (HL-60(TB) leukemia): 43.9 µM; GI50 (HOP-62 NSCLC): 9.77 µM; TGI (HOP-62 NSCLC): 22.1 µM; GI50 (HOP-92 NSCLC): 3.42 µM; TGI (HOP-92 NSCLC): 18.5 µM; GI50 (HS 578T breast): 3.49 µM; TGI (HS 578T breast): 32.8 µM; GI50 (HT29 colon): 2.13 µM; TGI (HT29 colon): 4.94 µM; GI50 (IGROV1 ovarian): 1.74 µM; TGI (IGROV1 ovarian): 6.91 µM; GI50 (K-562 leukemia): 3.77 µM; TGI (K-562 leukemia): > 100 µM; GI50 (KM12 colon): 3.09 µM; TGI (KM12 colon): 11.7 µM; GI50 (LOX IMVI melanoma): 1.6 µM; TGI (LOX IMVI melanoma): 3.29 µM; GI50 (M14 melanoma): 5.5 µM; TGI (M14 melanoma): 19.4 µM; GI50 (MALME-3M melanoma): 16.6 µM; TGI (MALME-3M melanoma): 35.3 µM; GI50 (MCF7 breast): 3.11 µM; TGI (MCF7 breast): 15.8 µM; GI50 (MDA-MB-231 breast): 12.6 µM; TGI (MDA-MB-231 breast): 32.8 µM; GI50 (MDA-MB-435): 4.04 µM; TGI (MDA-MB-435): 19 µM; GI50 (MOLT-4 leukemia): 10.1 µM; TGI (MOLT-4 leukemia): > 100 µM; GI50 (NCI-H23 lung): 4.62 µM; TGI (NCI-H23 lung): 17.9 µM; GI50 (NCI-H460 lung): 15.2 µM; TGI (NCI-H460 lung): 33.6 µM; GI50 (NCI-H522 lung): 2 µM; TGI (NCI-H522 lung): 13.6 µM; GI50 (NCI/ADR-RES ovarian): 7.49 µM; TGI (NCI/ADR-RES ovarian): 37 µM; GI50 (OVCAR-3 ovarian): 3.23 µM; TGI (OVCAR-3 ovarian): 12.9 µM; GI50 (OVCAR-4 ovarian): 11 µM; TGI (OVCAR-4 ovarian): 23.1 µM; GI50 (OVCAR-5 ovarian): 16.2 µM; TGI (OVCAR-5 ovarian): 32.1 µM; GI50 (OVCAR-8 ovarian): 4.03 µM; TGI (OVCAR-8 ovarian): 16.7 µM; GI50 (PC-3 prostate): 3.75 µM; TGI (PC-3 prostate): 18 µM; GI50 (RPMI-8226 leukemia): 1.69 µM; TGI (RPMI-8226 leukemia): 4.34 µM; GI50 (RXF 393 renal): 5.4 µM; TGI (RXF 393 renal): 18.6 µM; GI50 (SF-268 CNS): 10.9 µM; TGI (SF-268 CNS): 25.5 µM; GI50 (SF-295 CNS): 10.4 µM; TGI (SF-295 CNS): 31 µM; GI50 (SF-539 CNS): 5.4 µM; TGI (SF-539 CNS): 20.6 µM; GI50 (SK-MEL-2 melanoma): 14.8 µM; TGI (SK-MEL-2 melanoma): 28.8 µM; GI50 (SK-MEL-28 melanoma): 15 µM; TGI (SK-MEL-28 melanoma): 28.7 µM; GI50 (SK-MEL-5 melanoma): 12.4 µM; TGI (SK-MEL-5 melanoma): 25.1 µM; GI50 (SK-OV-3 ovarian): 13.8 µM; TGI (SK-OV-3 ovarian): 27.4 µM; GI50 (SN12C renal): 7.99 µM; TGI (SN12C renal): 21.4 µM; GI50 (SNB-19 CNS): 14 µM; TGI (SNB-19 CNS): 27.1 µM; GI50 (SNB-75 CNS): 5.63 µM; TGI (SNB-75 CNS): 20.5 µM; GI50 (SR leukemia): 2.89 µM; TGI (SR leukemia): > 100 µM; GI50 (SW-620 colon): 2.86 µM; TGI (SW-620 colon): 10.3 µM; GI50 (T-47D breast): 4.78 µM; TGI (T-47D breast): 18.9 µM; GI50 (TK-10 renal): 11.6 µM; TGI (TK-10 renal): 24.7 µM; GI50 (U251 CNS): 4.65 µM; TGI (U251 CNS): 17.1 µM; GI50 (UACC-257 melanoma): 9.67 µM; TGI (UACC-257 melanoma): 22.3 µM; GI50 (UACC-62 melanoma): 13.9 µM; TGI (UACC-62 melanoma): 27.7 µM; GI50 (UO-31 renal): 1.28 µM; TGI (UO-31 renal): 13.6 µM
